Read-outs that look alike come from different tables or passages of the source.
Tests used:
[1] = biological target: T1, human AR (androgen receptor) (Homo sapiens, UniProt P10275); assay: Steroid hormone nuclear receptor binding assay, AR binding
T1 construct: expressed in transfected cells; host or cells: 293 cells (293-AR lysate)
T1 sequence (P10275 1-920): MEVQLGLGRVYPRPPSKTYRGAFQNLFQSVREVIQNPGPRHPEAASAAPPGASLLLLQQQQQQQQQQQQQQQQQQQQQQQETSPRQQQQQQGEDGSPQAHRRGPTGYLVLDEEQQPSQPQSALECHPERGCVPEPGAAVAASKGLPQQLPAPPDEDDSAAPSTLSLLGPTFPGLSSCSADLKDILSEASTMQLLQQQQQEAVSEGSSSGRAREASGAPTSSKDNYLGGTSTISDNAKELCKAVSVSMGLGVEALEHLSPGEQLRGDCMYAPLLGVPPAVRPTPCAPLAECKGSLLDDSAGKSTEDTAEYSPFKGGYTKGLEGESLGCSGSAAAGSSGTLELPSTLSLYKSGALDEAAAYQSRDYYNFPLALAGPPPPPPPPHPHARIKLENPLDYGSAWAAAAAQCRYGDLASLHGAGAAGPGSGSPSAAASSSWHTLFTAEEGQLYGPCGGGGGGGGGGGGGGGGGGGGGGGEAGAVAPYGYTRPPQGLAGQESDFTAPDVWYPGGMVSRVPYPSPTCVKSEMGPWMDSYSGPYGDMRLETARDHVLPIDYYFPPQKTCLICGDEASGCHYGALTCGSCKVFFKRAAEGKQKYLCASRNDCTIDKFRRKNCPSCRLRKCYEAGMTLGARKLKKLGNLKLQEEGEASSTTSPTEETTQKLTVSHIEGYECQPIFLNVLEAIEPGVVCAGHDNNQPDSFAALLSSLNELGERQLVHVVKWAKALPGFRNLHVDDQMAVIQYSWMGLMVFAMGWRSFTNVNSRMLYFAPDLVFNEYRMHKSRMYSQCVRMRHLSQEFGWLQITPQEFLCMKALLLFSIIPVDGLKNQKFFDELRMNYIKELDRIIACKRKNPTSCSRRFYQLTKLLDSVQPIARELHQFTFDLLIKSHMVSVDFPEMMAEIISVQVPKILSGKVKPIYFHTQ
In short: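 Competition binding with lysates of 293 cells overexpressing human AR, [3H]-methyltrienolone tracer, compounds from about 0.01 nM to 10 μM, overnight at 4 °C; non-specific binding set with 500 nM methyltrienolone. Bound tracer counted by scintillation after charcoal-dextran separation; IC50 converted to Ki by Cheng-Prusoff using Kd from saturation binding.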

[2] = biological target: T2, human androgen receptor (AR) (Homo sapiens, UniProt P10275); assay: C2C12 AR/ARE reporter assay; format: cell-based
T2 construct: expressed in transfected cells; host or cells: mouse myoblast C2C12 cells, transiently co-transfected
T2 sequence (P10275 1-920): T1 sequence (P10275 1-920)
In short: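 Mouse C2C12 myoblasts co-transfected with AR/ARE reporter were plated in charcoal-stripped serum and treated for 48 h with compound from about 0.01 nM to 10 μM. Luciferase activity gave EC50 by 4-parameter logistic fit. Efficacy is expressed as % of maximal stimulation by 10 nM methyltrienolone.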

[3] = C2C12, read-out: C2C12 % Efficacy
[4] = average of n trials, read-out: AR binding Ki
[5] = C2C12 AR/ARE reporter assay, average of n trials, read-out: C2C12 % Efficacy
[6] = C2C12 AR/ARE reporter assay, average of n trials, read-out: C2C12 EC50

SMILES	Ki [1]	EC50 [2]	Emax [2, 3]	Ki [1, 4]	Emax [2, 5]	EC50 [2, 6]
CC(C)C(=O)NC1CCc2c(c3cc(C=O)ccc3n2Cc2cccc(F)c2)C1 (stereo not drawn) [Example 197, N-[9-(3-Fluoro-benzyl)-6-formyl-2,3,4,9-tetrahydro-1H-carbazol-3-yl]-isobutyramide]	4.2 nM	26.8 nM	147%	–	–	–
CC(C)C(=O)NC1CCc2c(c3cc(C(N)=S)ccc3n2Cc2cccc(F)c2)C1 (stereo not drawn) [Example 64, N-(9-(3-Fluorobenzyl)-6-thiocarbamoyl-2,3,4,9-tetrahydro-1H-carbazol-3-yl)isobutyramide]	–	–	–	14.5 nM	89.3%	9.3 nM
CC(C)C(=O)N[C@@H]1CCc2c(c3cc(C#N)ccc3n2Cc2cccc(F)n2)C1 [Example 183, (R)-N-[6-Cyano-9-(6-fluoro-pyridin-2-ylmethyl)-2,3,4,9-tetrahydro-1H-carbazol-3-yl]-isobutyramide]	–	–	–	4.3 nM	95.3%	0.7 nM
CC(C)C(=O)NC1CCc2c(c3cc(Br)ccc3n2Cc2cccc(F)c2)C1 (stereo not drawn) [Example 35, N-[6-bromo-9-(3-fluoro-benzyl)-2,3,4,9-tetrahydro-1H-carbazol-3-yl]-isobutyramide]	2.6 nM	2.3 nM	74.1%	–	–	–
CC(C)C(=O)NC1CCc2c(c3cc(C#N)ccc3n2Cc2cccc(N)c2)C1 (stereo not drawn) [Example 90, N-[9-(3-Amino-benzyl)-6-cyano-2,3,4,9-tetrahydro-1H-carbazol-3-yl]-isobutyramide]	30.5 nM	123 nM	67.6%	–	–	–
CC(C)C(=O)N[C@@H]1CCc2c(c3cc(-c4nncs4)ccc3n2Cc2cccc(F)c2)C1 [Example 127, (R)-N-[9-(3-Fluorobenzyl)-6-[1,3,4]thiadiazole-2-yl-2,3,4,9-tetrahydro-1H-carbazol-3-yl]isobutyramide]	–	–	–	10.4 nM	72.2%	21 nM
CC(C)C(=O)NC1CCc2c(c3cc(Cl)ccc3n2Cc2ccccc2N)C1 (stereo not drawn) [Example 106, N-[9-(2-Amino-benzyl)-6-chloro2,3,4,9-tetrahydro-1H-carbazol-3-yl]-isobutyramide]	–	–	–	8.2 nM	82.1%	2.3 nM
CC(C)C(=O)N[C@@H]1CCc2c(c3cc(-c4nnc(N)s4)ccc3n2Cc2cccc(F)c2)C1 [Example 126, (R)-N-[6-(5-Amino[1,3,4]thiadiazol-2-yl)-9-(3-fluorobenzyl)-2,3,4,9-tetrahydro-1H-carbazol-3-yl]isobutyramide]	19 nM	31.3 nM	87%	–	–	–
COc1ccc2c(c1)c1c(n2Cc2ccccc2Cl)CCC(NC(=O)C(C)C)C1 (stereo not drawn) [Example 69, N-[9-(2-Chloro-benzyl)-6-methoxy-2,3,4,9-tetrahydro-1H-carbazol-3-yl]-isobutyramide]	34.1 nM	213 nM	63.3%	–	–	–
CC(C)C(=O)NC1CCc2c(c3cc(-c4ccc(N)nc4)ccc3n2Cc2cccc(F)c2)C1 (stereo not drawn) [Example 142]	–	–	–	31.8 nM	61.8%	23.7 nM
COC(=O)N[C@@H]1CCc2c(c3cc(C#N)ccc3n2Cc2ccccn2)C1 [Example 185, (6(R)-Cyano-9-pyridin-2-ylmethyl-2,3,4,9-tetrahydro-1H-carbazol-3-yl)-carbamic acid methyl ester]	–	–	–	23.3 nM	77.5%	76 nM
CC(C)C(=O)N[C@@H]1CCc2c(c3cc(C=O)ccc3n2Cc2cccc(F)c2)C1 [Example 200, (R)-N-[9-(3-Fluorobenzyl)-6-formyl-2,3,4,9-tetrahydro-1H-carbazol-3-yl]-isobutyramide]	2.8 nM	8.1 nM	112%	–	–	–
COc1ccc2c(c1)c1c(n2Cc2cccc(Cl)c2)CCC(NC(=O)C(C)C)C1 (stereo not drawn) [Example 70]	10 nM	39.8 nM	63.9%	–	–	–
Cc1cccc(Cn2c3c(c4cc(Cl)ccc42)CC(NC(=O)C(C)C)CC3)c1 (stereo not drawn) [Example 82]	6.1 nM	37.1 nM	87.3%	–	–	–

From patent US7935722B2 (Eli Lilly and Company, priority 2005, dated 2011)
